Target: T1, Recombinant human DGAT2 protein (Homo sapiens, UniProt Q96PD7)
T1 construct: FLAG (DYKDDDDK); (N); made in house; host or cells: Sf-21 insect cells (BacPAK baculovirus system); used as a membrane preparation
T1 sequence (Q96PD7 1-388): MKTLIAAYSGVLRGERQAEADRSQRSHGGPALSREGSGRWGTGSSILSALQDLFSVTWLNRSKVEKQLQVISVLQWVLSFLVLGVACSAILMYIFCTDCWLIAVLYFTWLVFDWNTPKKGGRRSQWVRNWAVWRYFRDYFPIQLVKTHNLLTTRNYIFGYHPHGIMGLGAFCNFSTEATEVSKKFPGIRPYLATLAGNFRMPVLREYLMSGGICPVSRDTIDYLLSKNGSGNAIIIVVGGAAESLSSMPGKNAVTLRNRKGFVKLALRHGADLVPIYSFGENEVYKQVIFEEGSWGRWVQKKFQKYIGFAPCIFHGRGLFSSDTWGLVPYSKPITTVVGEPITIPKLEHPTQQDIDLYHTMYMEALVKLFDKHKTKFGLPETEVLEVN
Experiment: Measurement of inhibitory effect against DGAT2 enzyme activity (SPA, Phospholipid FlashPlate, [14C]-TG production)
Assay type: biochemical
Details: concentration inhibiting [14C]-labeled triacyl glycerol (TG) production by 50%; 2 μg DGAT2-membrane protein from Sf-21 cells, 37° C.
Experimental: Experimental Example: Measurement of Inhibitory Effect Against DGAT2 Enzyme Activity
In order to prepare the pBacPAK9-DGAT2, which is DGAT2 expression vector, the human DGAT2 gene amplified by polymerase chain reaction (PCR) was cloned into the EcoR1 and Xho1 sites of the pBacPAK9 (clonctech) vector. The nucleotide sequence of the primers used in PCR was the forward primer 5′ […] and the reverse primer 5′ […]. The composition of the reaction solution was to contain 50 ng of cDNA clone (OriGene), 200 μM of dATP, dCTP, dTTP, dGTP, 200 nM of each primer, 1 unit of Tag DNA Polymerase (Toyobo), 1×PCR buffer, and the final volume was adjusted to 20 μl. The reaction conditions were denatured at 95° C. for 5 minutes, followed by 30 times of 94° C. for 20 seconds, 60° C. for 20 seconds, and 72° C. for 90 seconds, followed by further reaction at 72° C. for 7 minutes.
Recombinant human DGAT2 protein was expressed in Sf-21 cells, which are insect cells, by using the BacPack baculovirus expression system (Clontech). The brief manufacturing process is as follows. First, the pBacPAK9-DGAT2 expression vector was transfected with BacPAK6 virus DNA (Bsu36I digest) into sf21 cells using Bacfectin to prepare a recombinant DGAT2 expressing baculovirus. The thus prepared baculovirus was infected with Sf-21 cells at 10 MOI (multiplicity of infection), and after 72 hours, infected insect cells were collected and membrane proteins were isolated. For membrane protein separation, the cell pellet was dissolved in a sucrose solution containing 250 mM sucrose, 10 mM Tris (pH 7.4), and 1 mM ethylenediamine-tetraacetic acid (EDTA), and then homogenized by using a dounce homogenizer, and the supernatant was taken by centrifuging at 600×g for 15 minutes, and centrifuged at 100,000×g for 1 hour to discard the supernatant, and the remaining pellet was resuspended in 20 mM HEPES buffer (pH 7.4). The prepared DGAT2 overexpressing membrane protein was dispensed in 100 μl and stored at −80° C. until use. Protein concentration was quantified by using the BCA Protein Assay Kit (Thermo Scientific).
In vitro DGAT2 analysis was performed using a Phospholipid Flash Plate (PerkinElmer) based on the principle of SPA (Scintillation Proximity Assay). First, DGAT2 inhibition compounds serially diluted 5 times from 3 nM to 10 μM (final concentration, 1% DMSO) were mixed in a buffer solution containing 2 μg DGAT2-membrane protein and 20 mM HEPES, 20 mM MgCl2, 1 mg/mL BSA, 50 μM 1,2 sn-oleoyl glycerol (Sigma), put in a 96-well flash plate (FlashPlate) and reacted at 37° C. for 20 minutes, and then 1 μM [14C] ole oil CoA (PerkinElmer, NEC651050UC) was added to be a final volume of 100 μL and further reacted at 37° C. for 15 minutes. After the enzymatic reaction was completed, 100 μL of isopropanol was added, the plate was sealed with a film, and the plate was shaken slowly in a plate shaker. The next day, the amplified scintillation signal (cpm) in Topcounter (Packard) was measured to measure the degree of production of [14C]-labeled triacyl glycerol (TG) as a reaction product. The measured value when the compound was not treated was used as a positive control, and the measured value of the compound treated group was calculated as a relative % to measure the inhibition effect of the compound on TG production.

Structure (SMILES)	IC50 [nM]
CCOc1ccccc1O[C@@H]1CCCN(c2cncc(NC(=O)Cc3ccc(C(C)(C)C(=O)O)cc3)n2)C1 [Example 69, (R)-2-(4-(2-((6-(3-(2-ethoxyphenoxy)piperidin-1-yl)pyrazin-2-yl)amino)-2-oxoethyl)phenyl)-2-methylpropanoic acid]	970
CCOc1ccccc1O[C@@H]1CCCN(c2cncc(NC(=O)Cc3ccc(O[C@@H](C)C(=O)O)cc3)n2)C1 [Example 104, (S)-2-(4-(2-((6-((R)-3-(2-ethoxyphenoxy)piperidin-1-yl)pyrazin-2-yl)amino)-2-oxoethyl)phenoxy)propanoic acid]	660
CCOc1ccccc1O[C@@H]1CCCN(c2cncc(NC(=O)c3ccc(CC(=O)O)cc3)n2)C1 [Example 12, (R)-2-(4-((6-(3-(2-ethoxyphenoxy)piperidin-1-yl)pyrazin-2-yl)carbamoyl)phenyl)acetic acid]	4000
CCOc1ccccc1O[C@@H]1CCCN(c2cncc(NC(=O)N[C@@H](Cc3ccccc3)C(=O)O)n2)C1 [Example 2, ((6-((R)-3-(2-ethoxyphenoxy)piperidin-1-yl)pyrazin-2-yl)carbamoyl)-L-phenylalanine]	16000
CCOc1ccccc1O[C@@H]1CCCN(c2cncc(NC(=O)C3CCN(c4nnn(CC(=O)O)n4)CC3)n2)C1 [Example 82, (R)-2-(5-(4-((6-(3-(2-ethoxyphenoxy)piperidin-1-yl)pyrazin-2-yl)carbamoyl)piperidin-1-yl)-2H-tetrazol-2-yl)acetic acid]	6800
CCOc1ccccc1O[C@@H]1CCCN(c2cncc(NC(=O)Cc3cccc(C(=O)O)c3)n2)C1 [Example 33, (R)-3-(2-((6-(3-(2-ethoxyphenoxy)piperidin-1-yl)pyrazin-2-yl)amino)-2-oxoethyl)benzoic acid]	4500
CCOc1ccccc1O[C@@H]1CCCN(c2cncc(NC(=O)N3CCOCC3)n2)C1 [Example 3, (R)—N-(6-(3-(2-ethoxyphenoxy)piperidin-1-yl)pyrazin-2-yl)morpholine-4-carboxamide]	2300
CCOc1ccccc1O[C@@H]1CCCN(c2cncc(NC(=O)c3ccc(Oc4ccc(C(=O)O)cc4)cc3)n2)C1 [Example 62, (R)-4-(4-((6-(3-(2-ethoxyphenoxy)piperidin-1-yl)pyrazin-2-yl)carbamoyl)phenoxy)benzoic acid]	2100
CCOc1ccccc1O[C@@H]1CCCN(c2cncc(NC(=O)c3cc(F)c(N4CCC(CC(=O)O)CC4)c(F)c3)n2)C1 [Example 58]	7500
CCOc1ccccc1O[C@@H]1CCCN(c2cncc(NC(=O)C3CCN(C(=O)CCC(=O)O)CC3)n2)C1 [Example 83, (R)-4-(4-((6-(3-(2-ethoxyphenoxy)piperidin-1-yl)pyrazin-2-yl)carbamoyl)piperidin-1-yl)-4-oxobutanoic acid]	> 10000
CCOc1ccccc1O[C@@H]1CCCN(c2cncc(NC(=O)CCC(=O)O)n2)C1 [Example 19, (R)-4-((6-(3-(2-ethoxyphenoxy)piperidin-1-yl)pyrazin-2-yl)amino)-4-oxobutanoic acid]	~15000

Stronger by IC50, values ahead:

IC50 [nM]	Structure (SMILES)
90	CCOc1ccccc1O[C@@H]1CCCN(c2cncc(NC(=O)c3ccc(OC)cc3)n2)C1 [Example 9, (R)—N-(6-(3-(2-ethoxyphenoxy)piperidin-1-yl)pyrazin-2-yl)-4-methoxybenzamide]
590	CCOc1ccccc1O[C@@H]1CCCN(c2cncc(NC(=O)COc3ccc(CC(=O)O)cc3)n2)C1 [Example 100, (R)-2-(4-(2-((6-(3-(2-ethoxyphenoxy)piperidin-1-yl)pyrazin-2-yl)amino)-2-oxoethoxy)phenyl)acetic acid]
590	CCOc1ccccc1O[C@@H]1CCCN(c2cncc(NC(=O)C3(C)CCN(c4ccc(C(=O)O)cn4)C3)n2)C1 (stereo partly drawn) [Example 89, 6-(3-((6-((R)-3-(2-ethoxyphenoxy)piperidin-1-yl)pyrazin-2-yl)carbamoyl)-3-methylpyrrolidin-1-yl)nicotinic acid]
19	CCOc1ccccc1O[C@@H]1CCCN(c2cncc(NC(=O)c3ccc([N+](=O)[O-])cc3)n2)C1 [Example 10, (R)—N-(6-(3-(2-ethoxyphenoxy)piperidin-1-yl)pyrazin-2-yl)-4-nitrobenzamide]
78	CCOc1cccnc1O[C@@H]1CCCN(c2cncc(NC(=O)CCc3ccc(OC(C)(C)C(=O)O)cc3)n2)C1 [Example 108, (R)-2-(4-(3-((6-(3-((3-ethoxypyridin-2-yl)oxy)piperidin-1-yl)pyrazin-2-yl)amino)-3-oxopropyl)phenoxy)-2-methylpropanoic acid]
9.6	CCOc1ccccc1O[C@@H]1CCCN(c2cncc(NC(=O)CCc3ccc(CC(N)=O)cc3)n2)C1 [Example 50]
29	CCOc1ccccc1O[C@@H]1CCCN(c2cncc(NC(=O)Cc3cccc(Cl)c3)n2)C1 [Example 30, (R)-2-(3-chlorophenyl)-N-(6-(3-(2-ethoxyphenoxy)piperidin-1-yl)pyrazin-2-yl)acetamide]
12	CCOc1ccccc1O[C@@H]1CCCN(c2cncc(NC(=O)Cc3ccc(O)cc3)n2)C1 [Example 36, (R)—N-(6-(3-(2-ethoxyphenoxy)piperidin-1-yl)pyrazin-2-yl)-2-(4-hydroxyphenyl)acetamide]
10	CCOc1ccccc1O[C@@H]1CCCN(c2cncc(NC(=O)C3CCN(S(=O)(=O)C(C)C)CC3)n2)C1 [Example 17, (R)—N-(6-(3-(2-ethoxyphenoxy)piperidin-1-yl)pyrazin-2-yl)-1-(isopropylsulfonyl)piperidine-4-carboxamide]
90	CCOc1cccnc1O[C@@H]1CCCN(c2cncc(NC(=O)Cc3ccc(OC(C)(C)C(=O)O)cc3)n2)C1 [Example 105, (R)-2-(4-(2-((6-(3-((3-ethoxypyridin-2-yl)oxy)piperidin-1-yl)pyrazin-2-yl)amino)-2-oxoethyl)phenoxy)-2-methylpropanoic acid]
160	CCOc1ccccc1O[C@@H]1CCCN(c2cncc(NC(=O)C3CCN(c4ccc(C(=O)O)cn4)C3)n2)C1 (stereo partly drawn) [Example 87, 6-(3-((6-((R)-3-(2-ethoxyphenoxy)piperidin-1-yl)pyrazin-2-yl)carbamoyl)pyrrolidin-1-yl)nicotinic acid]
35	CCOc1cccnc1O[C@@H]1CCCN(c2cncc(NC(=O)C(C)(C)c3ccc(CC(C)(C)C(=O)O)cc3)n2)C1 [Example 125, (R)-3-(4-(1-((6-(3-((3-ethoxypyridin-2-yl)oxy)piperidin-1-yl)pyrazin-2-yl)amino)-2-methyl-1-oxopropan-2-yl)phenyl)-2,2-dimethylpropanoic acid]
510	CCOc1ccccc1O[C@@H]1CCCN(c2cncc(NC(=O)CCc3ccc(C(=O)O)c(OC)c3)n2)C1 [Example 46, (R)-4-(3-((6-(3-(2-ethoxyphenoxy)piperidin-1-yl)pyrazin-2-yl)amino)-3-oxopropyl)-2-methoxybenzoic acid]
54	CCOc1ccccc1O[C@@H]1CCCN(c2cncc(NC(=O)Cc3cccc(C(F)(F)F)c3)n2)C1 [Example 26]
